According to ChEMBL document CHEMBL6115029, “Discovery of Daraxonrasib (RMC-6236), a Potent and Orally Bioavailable RAS(ON) Multi-selective, Noncovalent Tri-complex Inhibitor for the Treatment of Patients with Multiple RAS-Addicted Cancers” (J Med Chem, 2025):
In brackets after ≈: the same amount, converted by molar mass. Activity calls are given as the source filed them. The rule behind the calls is not given here.

Experiments:
[1] = tested on: NCI-H441; assay: Antitumor activity against human NCI-H441 cells harboring wildtype KRAS/KRAS G12V mutant xenografted in female BALB/c nude mouse assessed as tumor regression at 25 mg/kg, po administered once daily for 28 days; type: functional, organism-based; settings: time 28.0 day
[2] = Inhibition of ERK1/2 phosphorylation in human ASPC1 cells harboring KRAS G12D mutant incubated for 4 hrs by AlphaLISA assay; type: cell-based; settings: ASPC1, 4 h
[3] = Clearance in male Beagle dog at 1 mg/kg, iv measured after 24 hrs by LC-MS/MS analysis; type: ADME, organism-based, Canis lupus familiaris; settings: in vivo
[4] = Volume of distribution at steady state in male cynomolgus monkey at 1 mg/kg, iv measured after 24 hrs by LC-MS/MS analysis; type: ADME, organism-based, Macaca fascicularis; settings: in vivo, read-out: Vdss
[5] = tested on: SK-MEL-30; assay: Inhibition of ERK1/2 phosphorylation in human SK-MEL-30 cells harboring […] mutant incubated for 4 hrs by AlphaLISA assay; type: cell-based
[6] = Tmax in female BALB/c mouse at 10 mg/kg, po measured after 24 hrs by LC-MS/MS analysis; type: ADME, organism-based; settings: in vivo
[7] = tested on: Hs 766; assay: Cytotoxicity against human Hs766T cells harboring KRAS Q61H mutant cultured as 2D cells assessed as inhibition of cell proliferation incubated for 120 hrs by CellTiter-Glo luminescence assay; type: functional, cell-based
[8] = Metabolic stability in mouse liver microsomes assessed as half-life at 2 uM measured upto 60 mins in presence of NADPH by LC-MS/MS analysis; type: ADME, Microsome
[9] = Half-life in male cynomolgus monkey at 10 mg/kg, po measured after 24 hrs by LC-MS/MS analysis; type: ADME, organism-based, Macaca fascicularis; settings: in vivo
[10] = Volume of distribution at steady state in male Beagle dog at 1 mg/kg, iv measured after 24 hrs by LC-MS/MS analysis; type: ADME, organism-based, Canis lupus familiaris; settings: in vivo, read-out: Vdss
[11] = tested on: Mus musculus; assay: In vivo inhibition of MAPK signaling pathway in female BALB/c nude mouse xenografted with human MIA PaCa-2 cells harboring KRAS G12C/G12C mutant assessed as reduction in DUSP6 mRNA level in tumor at 3 to 10 mg/kg, po administered as single dose and measured upto 48 hrs by qPCR analysis; type: functional, organism-based; settings: dose 3-10 mg/kg
[12] = Kinetic solubility of compound in PBS at pH 7.4 measured after 5 hrs by UV analysis; type: physicochemical; settings: read-out: Kinetic_solubility
[13] = Clearance in male Sprague-Dawley rat at 1 mg/kg, iv measured after 24 hrs by LC-MS/MS analysis; type: ADME, organism-based; settings: in vivo
[14] = Tmax in male cynomolgus monkey at 10 mg/kg, po measured after 24 hrs by LC-MS/MS analysis; type: ADME, organism-based, Macaca fascicularis; settings: in vivo
[15] = Tmax in male Sprague-Dawley rat at 60 mg/kg, po measured after 24 hrs by LC-MS/MS analysis; type: ADME, organism-based; settings: in vivo
[16] = (§1) In vivo inhibition of MAPK signaling pathway in female BALB/c nude mouse xenografted with human MIA PaCa-2 cells harboring KRAS G12C/G12C mutant assessed as reduction in DUSP6 mRNA level in tumor at 3 mg/kg, po administered as single dose and measured after 8 hrs by qPCR analysis relative to control; type: functional
[17] = tested on: NCI-H441; assay: Cytotoxicity against human NCI-H441 cells harboring KRAS G12V mutant cultured as 2D cells assessed as inhibition of cell proliferation incubated for 120 hrs by CellTiter-Glo luminescence assay; type: functional, cell-based
[18] = Toxicity in female BALB/c nude mouse xenografted with human HPAF-II cells harboring wildtype KRAS/KRAS G12D mutant assessed as effect on body weight at 25 mg/kg, po administered once daily for 28 days; type: organism-based; settings: in vivo, 672 h, time 28 day
[19] = Clearance in female BALB/c mouse plasma at 1 mg/kg, iv measured after 24 hrs by LC-MS/MS analysis; type: ADME, organism-based
[20] = as §1, with “25” for “3”; type: functional
[21] = Inhibition of ERK1/2 phosphorylation in human CAPAN-1 cells harboring KRAS G12V mutant incubated for 4 hrs by AlphaLISA assay; type: cell-based; settings: CAPAN-1, 4 h
[22] = Volume of distribution at steady state in female BALB/c mouse at 1 mg/kg, iv measured after 24 hrs by LC-MS/MS analysis; type: ADME, organism-based; settings: in vivo, read-out: Vdss
[23] = Kinetic solubility of compound in PBS at pH 5.0 measured after 5 hrs by UV analysis; type: physicochemical; settings: read-out: Kinetic_solubility
[24] = Half-life in male Beagle dog at 1 mg/kg, iv measured after 24 hrs by LC-MS/MS analysis; type: ADME, organism-based, Canis lupus familiaris; settings: in vivo
[25] = tested on: HCT-116; assay: Cytotoxicity against human HCT-116 cells harboring KRAS G13D mutant cultured as 2D cells assessed as inhibition of cell proliferation incubated for 120 hrs by CellTiter-Glo luminescence assay; type: functional, cell-based
[26] = tested on: Mus musculus; assay: In vivo inhibition of MAPK signaling pathway in female BALB/c nude mouse xenografted with human MIA PaCa-2 cells harboring KRAS G12C/G12C mutant assessed as reduction in DUSP6 mRNA level in tumor at 25 mg/kg, po administered as single dose and measured upto 48 hrs by qPCR analysis; type: functional, organism-based
[27] = tested on: MIA PaCa-2; assay: Antitumor activity against human MIA PaCa-2 cells harboring KRAS G12C/G12C mutant xenografted in female BALB/c mouse model assessed as reduction in tumor volume administered orally as once daily dose for 28 days; type: functional, cell-based; settings: dose 3-25 mg/kg, route po, time 28.0 day
[28] = Half-life in male Sprague-Dawley rat at 1 mg/kg, iv measured after 24 hrs by LC-MS/MS analysis; type: ADME, organism-based; settings: in vivo
[29] = Apparent permeability across apical to basolateral side in human Caco-2 cells at 5 uM incubated for 2 hrs by LC-MS/MS analysis; type: ADME, cell-based
[30] = tested on: HPAF-II; assay: Antitumor activity against human HPAF-II cells harboring wildtype KRAS/KRAS G12D mutant xenografted in female BALB/c mouse model assessed as reduction in tumor volume administered orally as once daily dose for 28 days; type: functional, cell-based; settings: dose 3-25 mg/kg, route po, time 28.0 day
[31] = Toxicity in human PBL cells in presence of rat S9 fraction by micronucleus assay; type: subcellular
[32] = Inhibition of ERK1/2 phosphorylation in human NCI-H358 cells harboring KRAS G12C mutant incubated for 4 hrs by AlphaLISA assay; type: cell-based; settings: NCI-H358, 4 h
[33] = Efflux ratio of apparent permeability in human Caco-2 cells at 5 uM incubated for 2 hrs by LC-MS/MS analysis; type: ADME, cell-based
[34] = tested on: NCI-H1975; assay: Inhibition of ERK1/2 phosphorylation in human NCI-H1975 cells harboring wildtype KRAS incubated for 4 hrs by AlphaLISA assay; type: cell-based
[35] = Lipophilicity, logD of compound at pH 7.4 by Agilent 1290 II uPLC analysis; type: physicochemical; settings: buffer
[36] = Toxicity in female BALB/c nude mouse xenografted with human NCI-H1373 cells harboring KRAS G12C/KRAS G12C mutant assessed as effect on body weight at 25 mg/kg, po administered once daily for 28 days; type: organism-based; settings: in vivo, 672 h, time 28 day

In the case of `CCn1c(-c2cc(N3CCN(C)CC3)cnc2[C@H](C)OC)c2c3cc(ccc31)-c1csc(n1)C[C@H](NC(=O)[C@H]1C[C@@H]1C)C(=O)N1CCC[C@H](N1)C(=O)OCC(C)(C)C2`, the Activity [1] is reported as “Active”, the EC50 [2] is reported as 3.6 nM and the clearance [3] is reported as 6.67 mL/min/kg. For the same compound, the Vd [4] was 2.9 L/kg, the inhibition [5] was “Active” and the Tmax [6] was 1.7 h. The Activity [7] was “Active”, the half-life at 2 µM [8] was 1.13 h and the half-life [9] was 4.6 h. The Vd [10] was 2.1 L/kg, the inhibition [11] was “Not active; Pathway Reactivation Observed” and the solubility kinetic at 5 h [12] was 71 µM (≈ 57.6 µg/mL). It also gave a clearance [13] of 21.7 mL/min/kg, a Tmax [14] of 3.7 h and a Tmax [15] of 4 h. For the same compound, the inhibition in vivo at 3 mg/kg [16] was 93%, the Activity [17] was “Active” and the Activity [18] was “Non-toxic”. For the same compound, the clearance [19] was 40 mL/min/kg, the inhibition in vivo at 25 mg/kg [20] was 98% and the EC50 [21] was 0.3 nM. For the same compound, the Vd [22] was 1.3 L/kg, the solubility kinetic at 5 h [23] was over 100 µM and the half-life [24] was 6.1 h. The Activity [25] was “Active”, the inhibition [26] was “Active” and the Activity [27] was “Dose-dependent-effect”. For the same compound, the half-life [28] was 1.7 h, the Papp A→B at 2 h, 5 µM [29] was 0.4 ×10⁻⁶ cm/s and the Activity [30] was “Dose-dependent-effect”. The Activity [31] was “Non-toxic”, the EC50 [32] was 1.6 nM and the efflux ratio at 2 h, 5 µM [33] was 21. For the same compound, the inhibition [34] was “Active”, the logD [35] was 4.5 and the Activity [36] was “Non-toxic”.
